The results in this text go back to patent publication US20220217970A1, “Perfusion Regulated Organ Therapeutics with Enhanced Controlled Testing” (priority 2021, published 2022).

SMILES strings stand for the structures.

The subject of assay [1] is split human marginal donor liver (MDL) lobes. The experiment in a line: Serological liver injury markers during PROTECT normothermic perfusion of split liver lobes (Experiment 2). The following applies: DM infusion 0.6 mmol/L, listed as DMAT. The text has this:
In order to provide anatomic perfusion, a novel NMP described above and shown in FIGS. 1 and 2 was developed using an extra-corporal membrane oxygenation (ECMO) roller pump (Sorin/Stockert S3) with a modified circuit to provide dual blood supply to the hepatic artery and portal vein. Incorporated into this design was an arterial supply that passes through an oxygenator (Capiox Fx) and was connected to the hepatic artery.
Portal venous blood supply bypassed the oxygenator, was delivered to a reservoir, and then flowed by gravity into the portal vein. Pressure was regulated by the intrinsic resistance within the liver's arterial and portal venous circulations, combined with the resistance within the two limbs of the circuit and the flow delivered to each. […]
The circuit was monitored under guidance from a University certified ECMO perfusionist and the hospital ECMO physician team. […]
During each perfusion run (Table 1), laboratory analysis was carried out at regular intervals. Perfusate pH, pCO2, pO2, bicarbonate levels, and serum electrolytes (Na^+, K^+, Cl^−, ionized Ca^2+) were monitored every hour by automated blood gas analysis of both arterial and portal venous blood samples. […] Serum markers of liver injury, specifically AST, ALT, GGT, and alkaline phosphatase, were monitored hourly. […]
(§1) DM Dosing: In addition to the liver lobe weight, the volume of the cold preservation solution was measured. […]

Assay [2] shares this test system. The experiment in a line: Ki67 and CK-7 immunohistochemistry labeling index of perfused split lobes (Experiment 2). As for the experimental part:
As a proof of concept, the system 10 was used to test the effect on IRI by deferoxamine (DM), which is a chelator of iron and a ferroptosis regulator. During the testing, one liver lobe was used as an internal control for the treated lobe. Ferroptosis, an iron-dependent form of programmed cell death, has been implicated as a mechanism of pathogenesis in models of liver, kidney, and lung reperfusion injury. […] In the DM Agent Treated (DMAT) lobe, DM was administered to one split liver segment, while the other segment served as the No Agent Internal Control (NAIC) lobe. This experiment was deemed as Experiment 2.
as §1
Liver biopsy tissue from each liver segment was fixed in 10% buffered formalin for 24 hours. […] The following describes the specific stains and the methods utilized for quantification.
Ki67 labeling index: The nuclear antigen Ki67 is expressed in the cell cycle phases G1, S, G2 and M, however not during G0. The percentage of the Ki67 positive nuclei are expressed as a labeling index, which provides an objective cell proliferation index in the tissues. […] All the positive (immunoreactive) hepatic nuclei were calculated and subsequently divided by the total number of cells in 5 non-overlapping high-power fields. […]

As for `CC(=O)N(O)CCCCCNC(=O)CCC(=O)N(O)CCCCCNC(=O)CCC(=O)N(O)CCCCCN` [Deferoxamine], in assay [1] (Experiment 2, DM Agent Treated lobe vs No Agent Internal Control lobe (ΔALT NAIC 586)), the “ΔALT (change in serum ALT over the course of the experiment)” value is −405. Also, the “ΔAST (change in serum AST over the course of the experiment)” value in assay [1] (Experiment 2, DM Agent Treated lobe vs No Agent Internal Control lobe (ΔAST NAIC 617)) is −380. For the same compound, the “CK-7 expression (labeling index, bile duct proliferation)” value in assay [2] (Experiment 2, DMAT lobe (NAIC 0.30, p=0.29, n=5)) was determined as 0.26. Further, the “Ki67 index (hepatocellular proliferation)” value in assay [2] (conclusion of Experiment 2, DMAT lobe (NAIC 0.38, p=0.16)) was determined as 0.32.
